# Data taken from ChEMBL document CHEMBL1129004, “Synthesis and in vitro cytotoxicity of cis-(glycolato-O,O)-[2-substituted-(4R,5R)-4,5-bis(aminomethyl)-1,3-dioxolane]platinum (II)” (Bioorg Med Chem Lett, 1996).
# Tests used:
# Assay type in all cases: functional, cell-based
# MKN-45 = experiment: Compound was tested in vitro for cytotoxic activity against MKN-45 human stomach cancer cell line by MTT assay
# PC-14 = experiment: Compound was tested in vitro for cytotoxic activity against PC-14 human non-small cell lung cancer cell line by MTT assay
# PC-9 = experiment: Compound was tested in vitro for cytotoxic activity against PC-9 human non-small cell lung cancer cell line by MTT assay
# [1] = test system: KATO III stomach cancer cell line; experiment: Compound was tested in vitro for cytotoxic activity against KATO III human stomach cancer cell line by MTT assay
Sequence,IC50 (MKN-45),IC50 (PC-14),IC50 (PC-9),IC50 [1]
CARBOPLATIN,32.4 µM,9.7 µM,60.5 µM,49.7 µM
CISPLATIN,3.7 µM,1.5 µM,5 µM,5.2 µM
